Consider six molecules from patent publication US20020137929A1, “1 - (3-heterocyclylphenyl) isothiourea, -isourea, -guanidine and -amidine herbicidal agents” (Intellectual Property Department, BASF Aktiengesellschaft, priority 1998, published 2002).

Each structure is given as a SMILES string.

In assay [1] the test system is GALAP (Galium). The experiment in a line: Preemergence herbicidal evaluation. The following applies: rated 4-5 weeks after treatment. It is filed as in vivo, Galium aparine. In short, it runs like this:
(§1)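 Preemergence soil application of compound, sprayed in aqueous acetone at rates equivalent to about 0.0156 to 0.500 kg per hectare onto freshly sown cups. Plant response was judged by eye on a 0-9 scale four to five weeks later.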

In assay [2] the test system is IPOHE (Morningglory, Ivyleaf). The experiment in a line: Postemergence herbicidal evaluation. To be noted: postemergence. The class given is in vivo, Ipomoea hederacea. In short, it runs like this:
(§2)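 Compound is applied as a foliar spray to seedlings about two weeks old, formulated in equal parts acetone and water with 0.5% TWEEN 20 and delivered at 40 psi to give about 0.0156–0.500 kg per hectare. Injury is rated visually 0–9 after four to five weeks.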

Assay [3] has as its system CHEAL (Lambsquarters, Common). The experiment in a line: Postemergence herbicidal evaluation. It is filed as in vivo, Chenopodium album. To be noted: postemergence. The gist of the method:
as §2

The subject of assay [4] is ECHCG (Barnyardgrass). The experiment in a line: Preemergence herbicidal evaluation. It is filed as in vivo, Echinochloa crus-galli. The following applies: rated 4-5 weeks after treatment. The gist of the method: as §1
The subject of assay [5] is GLXMAW (Soybean, Williams). The assay can be described thus: Preemergence herbicidal evaluation. The class given is in vivo, Glycine max, (L.) Merr. cv Williams. The following applies: rated 4-5 weeks after treatment. The gist of the method: as §1
The mark [6] stands for this setting: rate 0.0625 kg/ha, rating scale 0-9.
Setting [7] is: rate 0.1250 kg/ha, rating scale 0-9.
Setting [8] is: rate 0.2500 kg/ha, rating scale 0-9.

On to `CCOC(=O)CN1C(=O)C(C(=O)OC)SC1=Nc1cc(-n2c(=O)cc(C(F)(F)F)n(C)c2=O)c(F)cc1Cl` (stereo not shown) [Compound 128, 5-Carboxy-2-{{2-chloro-5-[3,6-dihydro-3-methyl-2,6-dioxo-4-(trifluoromethyl)-1(2H)-pyrimidinyl]-4-fluorophenyl}imino}-4-oxo-3-thiazolidineacetic acid, 3-ethyl methyl ester], for which the “Preemergence herbicidal rating GALAP” value is 0.0 in assay [1] (rate 0.0156 kg/ha); 0.0 in assay [1] (rate 0.0313 kg/ha); 0.0 in assay [1] (rate 0.0625 kg/ha); 1.0 in assay [1] (rate 0.1250 kg/ha); 1.0 in assay [1] (rate 0.2500 kg/ha). In addition, the “Herbicidal rating IPOHE” value in assay [2] (rate 0.0156 kg/ha), in assay [2] (rate 0.0313 kg/ha) and in assay [2] (rate 0.0625 kg/ha) was 9.0 each time. Besides, the “Herbicidal rating CHEAL” value in assay [3] (rate 0.0156 kg/ha) is 4.0; in assay [3] (rate 0.0313 kg/ha), 9.0; in assay [3] (rate 0.0625 kg/ha), 9.0. The “Preemergence herbicidal rating ECHCG” value in assay [4] (rate 0.0156 kg/ha) is on record as 0.0; in assay [4] (rate 0.0313 kg/ha), 0.0; in assay [4] (rate 0.0625 kg/ha) it was 0.0; in assay [4] (rate 0.1250 kg/ha), 0.0; in assay [4] (rate 0.2500 kg/ha), 2.0. Besides, the “Preemergence herbicidal rating GLXMAW” value in assay [5] (rate 0.0156 kg/ha), in assay [5] (rate 0.0313 kg/ha), in assay [5] (rate 0.0625 kg/ha), in assay [5] (rate 0.1250 kg/ha) and in assay [5] (rate 0.2500 kg/ha) was 0.0 throughout.

In the case of `COc1cc(CN2C(=O)CSC2=Nc2cc(-n3c(=O)cc(C(F)(F)F)n(C)c3=O)c(F)cc2Cl)cc(OC)c1OC` [Compound 140, 3-{4-Chloro-2-fluoro-5-{[3-(3,4,5-trimethoxybenzyl)-4-oxo-2-thiazolidinylidene]amino}phenyl}-1-methyl-6-(trifluoromethyl)-2,4(1H,3H)-pyrimidinedione], the “Preemergence herbicidal rating GALAP” value in assay [1] (setting [6]), in assay [1] (setting [7]) and in assay [1] (setting [8]) was 0.0 in each case. In addition, the “Herbicidal rating IPOHE” value in assay [2] (rate 0.0156 kg/ha), in assay [2] (rate 0.0313 kg/ha) and in assay [2] (rate 0.0625 kg/ha) was 9.0 throughout. For the same molecule, the “Herbicidal rating CHEAL” value in assay [3] (rate 0.0156 kg/ha) and in assay [3] (rate 0.0625 kg/ha) was 3.0 in each case. Besides, the “Preemergence herbicidal rating ECHCG” value in assay [4] (setting [6]), in assay [4] (setting [7]) and in assay [4] (setting [8]) was 0.0 throughout. For the same molecule, the “Preemergence herbicidal rating GLXMAW” value in assay [5] (setting [6]), in assay [5] (setting [7]) and in assay [5] (setting [8]) was 0.0 throughout.

As for `Cn1c(C(F)(F)F)cc(=O)n(-c2cc(N=C3SCC(=O)N3Cc3cccnc3)c(Cl)cc2F)c1=O` [Compound 132, 3-{4-Chloro-2-fluoro-5-{[4-oxo-3-(3-pyridylmethyl)-2-thiazolidinylidene]amino}phenyl}-1-methyl-6-(trifluoromethyl)-2,4 (1H,3H)-pyrimidinedione], the “Preemergence herbicidal rating GALAP” value in assay [1] (setting [6]) is reported as 4.0; in assay [1] (setting [7]), 4.0; in assay [1] (setting [8]) it was 5.0. In addition, the “Herbicidal rating IPOHE” value in assay [2] (rate 0.0156 kg/ha) turned out to be 6.0; in assay [2] (rate 0.0313 kg/ha), 9.0; in assay [2] (rate 0.0625 kg/ha), 9.0. Moreover, the “Herbicidal rating CHEAL” value in assay [3] (rate 0.0156 kg/ha) is recorded as 4.0; in assay [3] (rate 0.0313 kg/ha), 4.0; in assay [3] (rate 0.0625 kg/ha), 9.0. Also, the “Preemergence herbicidal rating ECHCG” value in assay [4] (setting [6]) was determined as 0.0; in assay [4] (setting [7]), 0.0; in assay [4] (setting [8]) it was 7.0. Further, the entries for the “Preemergence herbicidal rating GLXMAW” value in assay [5] (setting [6]), in assay [5] (setting [7]) and in assay [5] (setting [8]) were 0.0, 0.0 and 2.0, respectively.

Take `CCOC(=O)CN1C(=O)C(CC(=O)O)SC1=Nc1cc(N2C(=O)CC(C(F)(F)F)CC2=O)c(F)cc1Cl` (stereo not shown) [Compound 170, 2-{{2-Chloro-5-[2,6-dioxo-4-(trifluoromethyl)-piperidino]-4-fluorophenyl}imino}-4-oxo-3,5-thiazolidinediacetic acid, 3-ethyl ester]: the “Preemergence herbicidal rating GALAP” value in assay [1] (0.0156 kg/ha) amounted to 0.0; in assay [1] (0.0313 kg/ha), 0.0; in assay [1] (0.0625 kg/ha), 0.0; in assay [1] (0.1250 kg/ha), 0.0; in assay [1] (0.2500 kg/ha), 3.0. Also, the “Herbicidal rating IPOHE” value in assay [2] (rate 0.0156 kg/ha), in assay [2] (rate 0.0313 kg/ha) and in assay [2] (rate 0.0625 kg/ha) was 9.0 in each case. Besides, the “Herbicidal rating CHEAL” value in assay [3] (rate 0.0156 kg/ha) was determined as 4.0; in assay [3] (rate 0.0313 kg/ha), 9.0; in assay [3] (rate 0.0625 kg/ha), 9.0. Moreover, the “Preemergence herbicidal rating ECHCG” value came to 3.0 in assay [4] (0.0156 kg/ha); 9.0 in assay [4] (0.0313 kg/ha); 9.0 in assay [4] (0.0625 kg/ha); 9.0 in assay [4] (0.1250 kg/ha); 9.0 in assay [4] (0.2500 kg/ha). The “Preemergence herbicidal rating GLXMAW” value in assay [5] (0.0156 kg/ha) was found to be 1.0; in assay [5] (0.0313 kg/ha) it was 4.0; in assay [5] (0.0625 kg/ha), 4.0; in assay [5] (0.1250 kg/ha) it was 5.0; in assay [5] (0.2500 kg/ha) it was 8.0.

Regarding `C[C@H](C(=O)O)N1C(=O)CSC1=Nc1cc(-n2c(=O)cc(C(F)(F)F)n(C)c2=O)c(F)cc1Cl` [Compound 70, 2-{{2-Chloro-5-[3,6-dihydro-3-methyl-2,6-dioxo-4-(trifluoromethyl)-1(2H)-pyrimidinyl]-4-fluoro-phenyl}imino}-α-methyl-4-oxo-3-thiazolidineacetic acid, D-], the “Preemergence herbicidal rating GALAP” value in assay [1] (rate 0.0156 kg/ha), in assay [1] (rate 0.0313 kg/ha), in assay [1] (rate 0.0625 kg/ha), in assay [1] (rate 0.1250 kg/ha) and in assay [1] (rate 0.2500 kg/ha) was 0.0 each time. Moreover, the IPOHE herbicidal rating in assay [2] (rate 0.0158 kg/ha), in assay [2] (rate 0.0315 kg/ha) and in assay [2] (rate 0.0630 kg/ha) was 9.0 in each case. The figures for the CHEAL herbicidal rating in assay [3] (rate 0.0158 kg/ha) and in assay [3] (rate 0.0315 kg/ha) were 4.0 and 9.0, respectively. Besides, the “Preemergence herbicidal rating ECHCG” value turned out to be 0.0 in assay [4] (rate 0.0156 kg/ha); 0.0 in assay [4] (rate 0.0313 kg/ha); 0.0 in assay [4] (rate 0.0625 kg/ha); 1.0 in assay [4] (rate 0.1250 kg/ha); 1.0 in assay [4] (rate 0.2500 kg/ha). In addition, the “Preemergence herbicidal rating GLXMAW” value in assay [5] (rate 0.0156 kg/ha) is reported as 0.0; in assay [5] (rate 0.0313 kg/ha), 0.0; in assay [5] (rate 0.0625 kg/ha) it was 0.0; in assay [5] (rate 0.1250 kg/ha), 0.0; in assay [5] (rate 0.2500 kg/ha) it was 2.0.

For `Cn1c(C(F)(F)F)cc(=O)n(-c2cc(N=C3SCC(=O)N3CC(=O)OC3CCCC3)c(Cl)cc2F)c1=O` [Compound 120, Cyclopentyl 2-{{2-chloro-5-[3,6-dihydro-3-methyl-2,6-dioxo-4-(trifluoromethyl)-1(2H)-pyrimidinyl]-4-fluorophenyl}imino}-4-oxo-3-thiazolidineacetate], the “Preemergence herbicidal rating GALAP” value in assay [1] (rate 0.0156 kg/ha), in assay [1] (rate 0.0313 kg/ha), in assay [1] (rate 0.0625 kg/ha), in assay [1] (rate 0.1250 kg/ha) and in assay [1] (rate 0.2500 kg/ha) was 0.0 throughout. The “Herbicidal rating IPOHE” value in assay [2] (rate 0.0156 kg/ha), in assay [2] (rate 0.0313 kg/ha) and in assay [2] (rate 0.0625 kg/ha) was 9.0 in each case. Also, the “Herbicidal rating CHEAL” value in assay [3] (rate 0.0156 kg/ha), in assay [3] (rate 0.0313 kg/ha) and in assay [3] (rate 0.0625 kg/ha) was 9.0 throughout. Besides, the “Preemergence herbicidal rating ECHCG” value in assay [4] (rate 0.0156 kg/ha) turned out to be 0.0; in assay [4] (rate 0.0313 kg/ha), 0.0; in assay [4] (rate 0.0625 kg/ha), 0.0; in assay [4] (rate 0.1250 kg/ha) it was 0.0; in assay [4] (rate 0.2500 kg/ha) it was 2.0. The “Preemergence herbicidal rating GLXMAW” value in assay [5] (rate 0.0156 kg/ha) was determined as 0.0; in assay [5] (rate 0.0313 kg/ha) it was 0.0; in assay [5] (rate 0.0625 kg/ha), 0.0; in assay [5] (rate 0.1250 kg/ha), 0.0; in assay [5] (rate 0.2500 kg/ha), 3.0.
